From a compilation of properties of binary mixtures (doi:10.1016/j.jct.2020.106383)

Test: xn = mol fraction of the nth substance listed
Conditions: 100 kPa

CCOC(C)=O + CCCC[n+]1ccn(C)c1.O=S(=O)([N-]S(=O)(=O)C(F)(F)F)C(F)(F)F
speed of sound [m/s]
Conditions	x2 = 0	x2 = 0.1045	x2 = 0.2067	x2 = 0.3058	x2 = 0.4012	x2 = 0.5002	x2 = 0.6065	x2 = 0.7081	x2 = 0.7932	x2 = 0.9087
298.15 K	1143.2	–	1172	1182.9	1192	–	1207.6	1213.7	1218.2	–
303.15 K	1120.8	1137.6	1151.9	1164	1174.2	1183.4	1192	1199.3	–	1211.6
308.15 K	1098.7	1116.7	1132.1	1145.3	–	1166.9	1176.7	1185.1	1191.5	1199.6
313.15 K	1076.4	1095.5	1112.1	1126.5	1138.8	1150.3	1161.3	–	–	1187.7
318.15 K	–	1074.5	–	1107.8	1121.2	–	1146.1	–	1165.2	–
323.15 K	1032	1053.5	1072.5	–	1103.7	1117.4	1130.9	1142.8	–	1164.3

CCCC[n+]1ccn(C)c1.O=S(=O)([N-]S(=O)(=O)C(F)(F)F)C(F)(F)F + CCOC(C)=O
x1 = 1
Conditions	speed of sound [m/s]
298.15 K	1227.9
303.15 K	1216.8
308.15 K	1205.8
313.15 K	1195
318.15 K	1184.2
323.15 K	1173.6
